In US11117900B2 (Vertex Pharmaceuticals Incorporated, priority 2012, dated 2021):

These compounds were tested on HCT116 colorectal cancer cells (assay: Cisplatin sensitization assay (96 h MTS cell viability)). Conditions: Cisplatin sensitization value.
Format: cell-based
Outline: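 The MTS viability read, after 1 h with reagent, followed 96 h of co-treatment at 37° C. in 5% CO2. Both compound and cisplatin were titrated 2-fold from a 10 μM top final concentration in a complete concentration matrix on HCT116 cells. Scores +++/++/+ reflect cisplatin sensitization value ranges.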
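Further: compound concentration needed to lower the IC50 of Cisplatin alone by a set fold.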

Compound	Cisplatin Sensitization Assay
N#CC1CN(C(=O)C2CCN(c3c(F)cncc3NC(=O)c3c(N)nn4cc(F)cnc34)CC2)C1 [I-G-76, 2-amino-N-(4-(4-(3-cyanoazetidine-1-carbonyl)piperidin-1-yl)-5-fluoropyridin-3-yl)-6-fluoropyrazolo[1,5-a]pyrimidine-3-carboxamide]	+++ (Compounds with a Cisplatin sensitization value of <0.02 μM are marked with “+++.”)
COc1cncc(NC(=O)c2c(N)nn3cc(F)cnc23)c1C1CC1 [I-C-84, 2-amino-N-(4-cyclopropyl-5-methoxypyridin-3-yl)-6-fluoropyrazolo[1,5-a]pyrimidine-3-carboxamide]	++ (Compounds with a Cisplatin sensitization value >0.02 μM but <0.2 μM are marked with “++.”)
CN1CCN(c2ccncc2NC(=O)c2c(N)nn3cc(F)cnc23)CC1=O [I-N-209, 2-amino-6-fluoro-N-(4-(4-methyl-3-oxopiperazin-1-yl)pyridin-3-yl)pyrazolo[1,5-a]pyrimidine-3-carboxamide]	+++ (Compounds with a Cisplatin sensitization value of <0.02 μM are marked with “+++.”)
Nc1nn2cc(F)cnc2c1C(=O)Nc1cncc(F)c1N1CCN2CCOC[C@H]2C1 [I-N-135, (R)-2-amino-6-fluoro-N-(5-fluoro-4-(hexahydropyrazino[2,1-c][1,4]oxazin-8(1H)-yl)pyridin-3-yl)pyrazolo[1,5-a]pyrimidine-3-carboxamide]	+++ (Compounds with a Cisplatin sensitization value of <0.02 μM are marked with “+++.”)
Cn1c(-c2ccncc2NC(=O)c2c(N)nn3cc(F)cnc23)cccc1=O [I-C-58, 2-amino-6-fluoro-N-(1-methyl-6-oxo-1,6-dihydro-[2,4′-bipyridin]-3′-yl)pyrazolo[1,5-a]pyrimidine-3-carboxamide]	+++ (Compounds with a Cisplatin sensitization value of <0.02 μM are marked with “+++.”)
CCOc1ccncc1NC(=O)c1c(N)nn2cc(F)cnc12 [I-O-14, 2-amino-N-(4-ethoxypyridin-3-yl)-6-fluoropyrazolo[1,5-a]pyrimidine-3-carboxamide]	+++ (Compounds with a Cisplatin sensitization value of <0.02 μM are marked with “+++.”)
CCOC1CN(C(=O)C2CCN(c3ccncc3NC(=O)c3c(N)nn4cc(F)cnc34)CC2)C1 [I-G-91, 2-amino-N-(4-(4-(3-ethoxyazetidine-1-carbonyl)piperidin-1-yl)pyridin-3-yl)-6-fluoropyrazolo[1,5-a]pyrimidine-3-carboxamide]	+++ (Compounds with a Cisplatin sensitization value of <0.02 μM are marked with “+++.”)
Nc1nn2cc(Cl)cnc2c1C(=O)Nc1cnccc1N1CCCC(N)C1 (stereo not shown) [I-N-55, 2-amino-N-(4-(3-aminopiperidin-1-yl)pyridin-3-yl)-6-chloropyrazolo[1,5-a]pyrimidine-3-carboxamide]	++ (Compounds with a Cisplatin sensitization value >0.02 μM but <0.2 μM are marked with “++.”)
COc1ccc(-c2ccncc2NC(=O)c2c(N)nn3cc(F)cnc23)cn1 [I-C-27, 2-amino-6-fluoro-N-(6-methoxy-[3,4′-bipyridin]-3′-yl)pyrazolo[1,5-a]pyrimidine-3-carboxamide]	++ (Compounds with a Cisplatin sensitization value >0.02 μM but <0.2 μM are marked with “++.”)
CN(C)[C@@H]1CCN(C(=O)C2CCN(c3c(F)cncc3NC(=O)c3c(N)nn4cc(F)cnc34)CC2)C1 [I-G-11, (R)-2-amino-N-(4-(4-(3-(dimethylamino)pyrrolidine-1-carbonyl)piperidin-1-yl)-5-fluoropyridin-3-yl)-6-fluoropyrazolo[1,5-a]pyrimidine-3-carboxamide]	+++ (Compounds with a Cisplatin sensitization value of <0.02 μM are marked with “+++.”)
CS(=O)(=O)C1CN(C(=O)C2CCN(c3c(F)cncc3NC(=O)c3c(N)nn4cc(F)cnc34)CC2)C1 [I-G-86, 2-amino-6-fluoro-N-(5-fluoro-4-(4-(3-(methylsulfonyl)azetidine-1-carbonyl)piperidin-1-yl)pyridin-3-yl)pyrazolo[1,5-a]pyrimidine-3-carboxamide]	+++ (Compounds with a Cisplatin sensitization value of <0.02 μM are marked with “+++.”)
Nc1nn2cc(Cl)cnc2c1C(=O)Nc1cnccc1-n1ccnc1 [I-N-29, N-(4-(1H-imidazol-1-yl)pyridin-3-yl)-2-amino-6-chloropyrazolo[1,5-a]pyrimidine-3-carboxamide]	++ (Compounds with a Cisplatin sensitization value >0.02 μM but <0.2 μM are marked with “++.”)
Cn1cncc1-c1c(F)cncc1NC(=O)c1c(N)nn2cc(F)cnc12 [I-C-79, 2-amino-6-fluoro-N-(5-fluoro-4-(1-methyl-1H-imidazol-5-yl)pyridin-3-yl)pyrazolo[1,5-a]pyrimidine-3-carboxamide]	+++ (Compounds with a Cisplatin sensitization value of <0.02 μM are marked with “+++.”)
Nc1nn2cc(F)cnc2c1C(=O)Nc1cnccc1N1CCCC2(COC2)C1 [I-N-253, N-(4-(2-oxa-6-azaspiro[3.5]nonan-6-yl)pyridin-3-yl)-2-amino-6-fluoropyrazolo[1,5-a]pyrimidine-3-carboxamide]	+++ (Compounds with a Cisplatin sensitization value of <0.02 μM are marked with “+++.”)
CN(C)CC(=O)N1CCN(c2c(F)cncc2NC(=O)c2c(N)nn3cc(F)cnc23)CC1 [I-N-153, 2-amino-N-(4-(4-(2-(dimethylamino)acetyl)piperazin-1-yl)-5-fluoropyridin-3-yl)-6-fluoropyrazolo[1,5-a]pyrimidine-3-carboxamide]	++ (Compounds with a Cisplatin sensitization value >0.02 μM but <0.2 μM are marked with “++.”)
Nc1nn2cc(F)cnc2c1C(=O)Nc1cnccc1N1CCC(N2CCCC2=O)CC1 [I-N-230, 2-amino-6-fluoro-N-(4-(4-(2-oxopyrrolidin-1-yl)piperidin-1-yl)pyridin-3-yl)pyrazolo[1,5-a]pyrimidine-3-carboxamide]	+++ (Compounds with a Cisplatin sensitization value of <0.02 μM are marked with “+++.”)
Nc1nn2cc(Cl)cnc2c1C(=O)Nc1cnccc1N1CCNCC1 [I-N-88, 2-amino-6-chloro-N-(4-(piperazin-1-yl)pyridin-3-yl)pyrazolo[1,5-a]pyrimidine-3-carboxamide]	++ (Compounds with a Cisplatin sensitization value >0.02 μM but <0.2 μM are marked with “++.”)
Nc1nn2cc(F)cnc2c1C(=O)Nc1cncc(F)c1N1CCC(C(=O)N2CC3(COC3)C2)CC1 [I-G-72, N-(4-(4-(2-oxa-6-azaspiro[3.3]heptane-6-carbonyl)piperidin-1-yl)-5-fluoropyridin-3-yl)-2-amino-6-fluoropyrazolo[1,5-a]pyrimidine-3-carboxamide]	+++ (Compounds with a Cisplatin sensitization value of <0.02 μM are marked with “+++.”)
CN1CCN(c2c(NC(=O)c3c(N)nn4cc(F)cnc34)cncc2C(F)F)CC1 [I-N-111, 2-amino-N-(5-(difluoromethyl)-4-(4-methylpiperazin-1-yl)pyridin-3-yl)-6-fluoropyrazolo[1,5-a]pyrimidine-3-carboxamide]	++ (Compounds with a Cisplatin sensitization value >0.02 μM but <0.2 μM are marked with “++.”)
Nc1nn2cc(F)cnc2c1C(=O)Nc1cncc(F)c1N1CCC(C(=O)N2CCOCC2)CC1 [I-G-36, 2-amino-6-fluoro-N-(5-fluoro-4-(4-(morpholine-4-carbonyl)piperidin-1-yl)pyridin-3-yl)pyrazolo[1,5-a]pyrimidine-3-carboxamide]	+++ (Compounds with a Cisplatin sensitization value of <0.02 μM are marked with “+++.”)
Nc1nn2cc(F)cnc2c1C(=O)Nc1cnccc1C1CCN(C(=O)C23CCN(CC2)CC3)CC1 [I-C-18, 2-amino-6-fluoro-N-(4-(1-(quinuclidine-4-carbonyl)piperidin-4-yl)pyridin-3-yl)pyrazolo[1,5-a]pyrimidine-3-carboxamide]	+ (Compounds with a Cisplatin sensitization value >0.2 μM but <5 μM are marked with “+.”)
N#CCc1cnc2c(C(=O)Nc3cnccc3OCCCO)c(N)nn2c1 [I-O-40, 2-amino-6-(cyanomethyl)-N-(4-(3-hydroxypropoxy)pyridin-3-yl)pyrazolo[1,5-a]pyrimidine-3-carboxamide]	++ (Compounds with a Cisplatin sensitization value >0.02 μM but <0.2 μM are marked with “++.”)
Nc1nn2cc(F)cnc2c1C(=O)Nc1cncc(Cl)c1N1CCNCC1 [I-N-126, 2-amino-N-(5-chloro-4-(piperazin-1-yl)pyridin-3-yl)-6-fluoropyrazolo[1,5-a]pyrimidine-3-carboxamide]	+++ (Compounds with a Cisplatin sensitization value of <0.02 μM are marked with “+++.”)
Cc1cncc(NC(=O)c2c(N)nn3cc(F)cnc23)c1N1CCC(C(=O)N2CCNCC2)CC1 [I-G-56, 2-amino-6-fluoro-N-(5-methyl-4-(4-(piperazine-1-carbonyl)piperidin-1-yl)pyridin-3-yl)pyrazolo[1,5-a]pyrimidine-3-carboxamide]	+++ (Compounds with a Cisplatin sensitization value of <0.02 μM are marked with “+++.”)
Nc1nn2cc(F)cnc2c1C(=O)Nc1cncc(F)c1N1CCC(C(=O)N2CC(N3CCCCC3)C2)CC1 [I-G-57, 2-amino-6-fluoro-N-(5-fluoro-4-(4-(3-(piperidin-1-yl)azetidine-1-carbonyl)piperidin-1-yl)pyridin-3-yl)pyrazolo[1,5-a]pyrimidine-3-carboxamide]	+++ (Compounds with a Cisplatin sensitization value of <0.02 μM are marked with “+++.”)
